The nature of experiment [1]: Urine catching pad urine addition test, urine odor intensity. Set-up: species or system human. The settings on record: 30° C. As to the method: Sensory evaluation of odor was performed by six panelists, the evaluation was based on a six-level odor intensity indication method in which the odor intensity was indicated with an evaluation score of 0 to 5. In the evaluation score, “0” indicates no odor, “1” indicates odor which can be slightly perceived (detection threshold), “2” indicates odor which can be perceived to be urine odor but is weak (perception threshold), “3” indicates odor which can be easily perceived to be urine odor, “4” indicates strong urine odor, and “5” indicates extreme urine odor. The odor intensity was determined at an interval of 0.5.
Specifically, the urine catching pad was prepared by replacing only a water-absorbent polymer in the commercially available urine catching pad “Relief urine catching pad safe absorption (Anshin-Kyusyu)” (manufactured by Kao Corporation) with a water-absorbent polymer wherein the β-glucuronidase inhibitor of the present invention was added. The added amount of the inhibitor to the water-absorbent polymer was 1 wt. % with respect to the water-absorbent polymer, and was equivalent to 1.5 g/m^2 with respect to the urine catching pad.
A urine addition test was performed by using test pieces having dimensions of 19 cm by 7 cm being cut out from the urine catching pad, and using a test piece containing no β-glucuronidase inhibitor as a blank. The test was performed as follows: 30 g of human urine (a mixture of urine from five humans) were added to these test pieces cut out from the urine catching pad, and the urine odor intensity after 1 hour, after 24 hours, and after 48 hours under preservation at 30° C. was evaluated by five panelists based on the six-level odor intensity indication method as described in the item (2) of Reference Example 2.

The target of experiment [2] is T1, β-glucuronidase Type VII-A derived from Escherichia coli (Escherichia coli, UniProt P05804).
T1 construct: purchased Sigma-Aldrich Corporation
Nature of the experiment: Inhibition of β-glucuronidase activity (PNPG substrate, absorbance at 400 nm). In kind it is biochemical. To be noted: 1.6 units/mL enzyme, 37° C., 2 hours, pH 6.8. On the procedure:
100 μL of a 2 mM PNPG aqueous solution, 40 μL of a 0.5 M phosphate buffer (pH 6.8), 38 μL of ion exchanged water and 2 μL of a 10 or 1 wt % dipropylene glycol (DPG) solution of various compounds or plant extracts were mixed in a bottle γ-ray sterilized in advance, and subsequently 20 μL of a β-glucuronidase aqueous solution adjusted to 16 units/mL was added, in order to allow the enzyme to react in a thermostat bath at 37° C. for 2 hours. Further, in the case of some of compounds, in addition to the above steps, the same experiment was performed using a 0.1 wt % DPG solution as well. As a result, the concentrations of the test compounds and plant extracts in the reaction solution were adjusted to 0.1, 0.01 and 0.001 wt %, respectively. Further, a product prepared by adding DPG in place of the above-mentioned compounds and plant extracts was used as a control, and a product prepared by adding ion exchanged water in place of an enzyme solution was used as a blank for each sample and control, and the respective products were allowed to react for 2 hours in the same manner. It should be noted that the plant extract sample was used as a solvent extract.
The above-mentioned reaction solution was diluted with a 0.2 M glycine buffer (pH 10.4) and measured for its absorbance at a wavelength of 400 nm. The relative activity inhibition rate of a β-glucuronidase was determined by using the obtained measurement value in accordance with the following equation. Absorbance change of control=Absorbance of control−Absorbance of blank for each control Absorbance change of sample=Absorbance of sample−Absorbance of blank for each sample Activity inhibition rate (%)=[(Absorbance change of control−Absorbance change of sample)/Absorbance change of control]×100

[3] abbreviates: six-level score 0 to 5, average of five panelists, inhibitor 1 wt. % of water-absorbent polymer, 30 g human urine.

T1 sequence (P05804 whole entry): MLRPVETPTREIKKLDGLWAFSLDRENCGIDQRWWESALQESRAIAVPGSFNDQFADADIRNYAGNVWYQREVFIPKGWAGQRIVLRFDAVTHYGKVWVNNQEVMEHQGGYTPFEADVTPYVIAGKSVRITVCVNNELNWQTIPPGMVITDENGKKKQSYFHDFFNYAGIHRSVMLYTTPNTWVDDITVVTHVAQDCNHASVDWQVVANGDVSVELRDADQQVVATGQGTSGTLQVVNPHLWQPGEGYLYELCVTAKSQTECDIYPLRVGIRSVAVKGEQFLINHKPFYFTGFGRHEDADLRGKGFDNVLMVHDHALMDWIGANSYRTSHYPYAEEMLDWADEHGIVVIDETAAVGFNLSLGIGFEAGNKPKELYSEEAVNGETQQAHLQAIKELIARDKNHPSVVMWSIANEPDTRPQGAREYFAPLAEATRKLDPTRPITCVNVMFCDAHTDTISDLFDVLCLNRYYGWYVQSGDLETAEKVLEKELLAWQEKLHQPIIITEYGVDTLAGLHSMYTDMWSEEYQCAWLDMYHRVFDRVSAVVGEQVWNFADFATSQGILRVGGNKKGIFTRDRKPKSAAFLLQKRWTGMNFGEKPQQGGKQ

For the compound `O=C1CCCCCCC=CCCCCCCC1` [8-Cyclohexadecen-1-one, 8-cyclohexadecen-1-one], the “Suppression of the increase of urine odor in urine catching pad compared to the blank (result in words)” value in experiment [1] (after 24 or 48 hours as stated) is on record as “even after 48 hours, was confirmed”. In experiment [1] (setting [3]), the “Urine odor intensity After 1 hour” value turned out to be 1.3, the “Urine odor intensity After 24 hours” value is 1.5 and the “Urine odor intensity After 48 hours” value was determined as 1.9. Besides, the “Inhibition rate (%) Concentration 0.001%” value in experiment [2] (0.001 wt % in reaction solution) is 95.8%. Also, the inhibition at 0.01 wt % in experiment [2] (0.01 wt % in reaction solution, read-out: Inhibition rate (%) Concentration 0.01%) was determined as 99.9%. In addition, in experiment [2] (0.1 wt % in reaction solution, read-out: Inhibition rate (%) Concentration 0.1%), the inhibition at 0.1 wt % came to 100%.

The values above are taken from US9200269B2, “β-glucuronidase inhibitor” (priority 2007, dated 2015).
